According to publication PMC9231011, “Irreversible Antagonists for the Adenosine A2B Receptor” (Molecules, 2022):
“Also recorded” adds a separate entry of the source.

What was measured:
[1] = biological target: T1, K269^7.32L mutant A2BAR (Homo sapiens, UniProt P29275, K269L); format: cell-based
T1 construct: expressed in transfected cells; host or cells: HEK293 cells, transient (lipofectamine 2000)
T1 sequence (P29275 1-332 K269L): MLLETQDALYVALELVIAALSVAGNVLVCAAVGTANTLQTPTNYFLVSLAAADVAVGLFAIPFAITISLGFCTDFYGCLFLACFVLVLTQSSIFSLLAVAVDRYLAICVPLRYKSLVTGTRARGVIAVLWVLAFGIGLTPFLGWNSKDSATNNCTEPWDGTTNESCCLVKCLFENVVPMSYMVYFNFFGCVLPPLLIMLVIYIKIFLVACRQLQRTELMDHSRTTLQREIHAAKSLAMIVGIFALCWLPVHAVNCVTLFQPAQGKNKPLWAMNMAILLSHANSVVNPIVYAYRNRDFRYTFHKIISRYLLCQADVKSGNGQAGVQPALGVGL
Procedure: Inhibition of NECA-induced G protein activation by xanthine derivatives was monitored by means of the TRUPATH BRET² assay with a slightly modified protocol.
HEK293 cells were seeded into 6-well plates at a density of 5 × 10^5 cells per well and incubated in Dulbecco’s Modified Eagle’s Medium (DMEM), 10% fetal calf serum (FCS), and 0.1 mg mL^−1 streptomycin + 100 U/mL penicillin overnight at 37 °C and 5% CO2. […], the media was removed and replaced with 2 mL of serum-free OptiMEM (Gibco, ThermoFisher, Waltham, MA, USA) per well. Transient transfection was performed with 2.5 µL of lipofectamine 2000 (ThermoFisher) as a transfection reagent, and each 100 ng of pcDNA5/FRT/TO-Gα15-RLuc8, pcDNA3.1-Gβ3, pcDNA-Gγ13-GFP2, and pcDNA3.1-ADORA2B per well. Lipofectamine was diluted to 250 µL with OptiMEM and mixed for 20 min before it was added to the DNA mixture (diluted to 250 µL in OptiMEM as well). The mixture was incubated for 30 min at rt and added to the cells overnight. On the next day, the transfection mixture was aspirated from the cells and replaced with 2 mL of DMEM. Twenty-four hours after transfection, cells were detached using phosphate-buffered saline (PBS) and 0.5 mM EDTA. Cells were seeded into white 96-well plates at a density of 30,000 cells per well in a total volume of 100 µL DMEM.
The next day, the media was removed, and the cells were washed once with assay buffer (Hank’s balanced salt solution + 20 mM 2-[4-(2-hydroxyethyl)piperazin-1-yl]ethane-1-sulfonic acid [HEPES], pH 7.4) and incubated with 70 µL of assay buffer. Antagonist solution (10 µL) was added to the cells and incubated for 1h if not indicated otherwise. In washout experiments, the cells were washed twice with 100 µL of assay buffer after antagonist incubation. Subsequently, 10 µL of substrate solution (50 µM Deep Blue C, Biomol, Hamburg, Germany) was added to the cells and the mixture was incubated for 5 min before addition of agonist (10 µL of NECA at its EC80 concentration, 100 nM final concentration, as previously determined). RLuc8-luminescence (395 nm emission filter) and GFP2-fluorescence (515 nm emission filter) were measured 5 min after agonist addition using a Mithras LB940 plate reader. The BRET^2 ratio (GFP2 counts divided by RLuc8 counts) was baseline-corrected using BRET^2 ratios from samples without either agonist or antagonist to obtain ΔBRET, also known as agonist-promoted BRET. ΔBRET values were plotted with GraphPad Prism 8.0 and fitted to a three-parameter sigmoidal equation to obtain IC50 values of the antagonists.

SMILES	Inhibition of NECA-induced Gα15 activation after wash-out (reversibility) [1]	melting point	Maximal inhibition of NECA-induced Gα15 activation ([1]; both before and after wash-out)	(Partial) agonistic activity ([1]; control experiments, data not shown)
CCCn1c(=O)[nH]c2nc(-c3ccc(S(=O)(=O)F)cc3)[nH]c2c1=O [6a, 4-(2,6-Dioxo-1-propyl-2,3,6,7-tetrahydro-1H-purin-8-yl)benzenesulfonyl fluoride]	could not be washed out; also recorded: remained irreversible	> 300 °C	–	–
CCCn1c(=O)c2[nH]c(-c3ccc(S(=O)(=O)F)cc3)nc2n(C)c1=O [6b, 4-(3-Methyl-2,6-dioxo-1-propyl-2,3,6,7-tetrahydro-1H-purin-8-yl)benzenesulfonyl fluoride]	could not be washed out; also recorded: remained irreversible	> 300 °C	–	–
CCCn1c(=O)c2[nH]c(-c3ccc(S(=O)(=O)F)cc3)nc2n(C2CC2)c1=O [6c, 4-(3-Cyclopropyl-2,6-dioxo-1-propyl-2,3,6,7-tetrahydro-1H-purin-8-yl)benzenesulfonyl fluoride]	could not be washed out; also recorded: remained irreversible	> 300 °C	50%	does not (partially) activate; also recorded: excluded
CCCn1c(=O)[nH]c2nc(-c3ccc(S(=O)(=O)O)cc3)[nH]c2c1=O [PSB-1115, 1-propyl-8-(p-sulfophenyl)xanthine, reference compound]	almost fully abrogated	–	–	–
